# Assay results published in patent US20240018153A1, “BENZENESULFONAMIDE DERIVATIVES AND USES THEREOF” (2692372 ONTARIO, INC., priority 2020, published 2024).
# What was measured:
# EGFR = EGFR (Homo sapiens (Human), UniProt P00533); assay: HTRF KinEASE-TK kinase assay, EGFR; assay type: biochemical; settings: 3 h preincubation; for remaining activity at 1 µM: 1 μM compound, read-out: % EGFR Remaining activity vs DMSO (1 μM, 3 h); for remaining activity at 10 µM: 10 μM compound, read-out: % EGFR Remaining activity vs DMSO (10 μM, 3 h); for IC50: dose response, read-out: EGFR Inhibition IC50
# Chain of EGFR (P00533 25-1210): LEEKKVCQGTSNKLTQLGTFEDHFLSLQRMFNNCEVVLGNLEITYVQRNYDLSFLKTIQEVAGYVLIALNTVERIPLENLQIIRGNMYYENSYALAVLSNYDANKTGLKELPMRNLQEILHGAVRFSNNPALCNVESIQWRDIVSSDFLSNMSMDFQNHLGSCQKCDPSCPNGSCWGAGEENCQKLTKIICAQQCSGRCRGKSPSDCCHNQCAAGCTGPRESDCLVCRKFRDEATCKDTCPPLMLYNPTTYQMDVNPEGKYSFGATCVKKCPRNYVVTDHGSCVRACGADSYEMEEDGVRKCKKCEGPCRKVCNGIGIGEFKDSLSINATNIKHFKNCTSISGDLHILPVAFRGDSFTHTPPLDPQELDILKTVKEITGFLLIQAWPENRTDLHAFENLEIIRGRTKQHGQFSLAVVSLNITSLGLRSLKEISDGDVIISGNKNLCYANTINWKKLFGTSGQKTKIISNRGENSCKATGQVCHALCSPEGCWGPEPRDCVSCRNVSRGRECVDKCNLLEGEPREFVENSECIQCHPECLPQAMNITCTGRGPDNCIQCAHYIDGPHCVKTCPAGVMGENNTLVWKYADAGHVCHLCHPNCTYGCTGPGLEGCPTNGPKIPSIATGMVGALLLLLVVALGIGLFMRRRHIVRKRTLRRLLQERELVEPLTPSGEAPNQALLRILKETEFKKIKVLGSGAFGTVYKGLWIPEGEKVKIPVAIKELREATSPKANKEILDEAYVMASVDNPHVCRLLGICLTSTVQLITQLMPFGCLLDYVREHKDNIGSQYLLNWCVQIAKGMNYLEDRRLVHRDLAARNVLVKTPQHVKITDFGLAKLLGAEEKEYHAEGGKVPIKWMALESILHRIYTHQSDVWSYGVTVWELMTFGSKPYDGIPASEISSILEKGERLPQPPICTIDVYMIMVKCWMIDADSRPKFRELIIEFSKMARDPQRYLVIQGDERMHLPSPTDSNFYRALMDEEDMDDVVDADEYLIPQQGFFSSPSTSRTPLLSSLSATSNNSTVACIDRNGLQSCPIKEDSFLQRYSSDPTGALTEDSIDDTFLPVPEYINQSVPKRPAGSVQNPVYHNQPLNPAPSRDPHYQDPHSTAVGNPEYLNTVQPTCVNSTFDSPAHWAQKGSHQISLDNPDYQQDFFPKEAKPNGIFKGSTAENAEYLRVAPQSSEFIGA
# Summary of the method: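 HTRF KinEASE-TK format: EGFR pre-incubated with compound at 1 and 10 uM final (0.5% DMSO) in kinase buffer with 2 mM MnCl2, 5 mM MgCl2 and 1 mM TCEP.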
# BTK [1] = molecular target: T1, BTK (Homo sapiens (Human), UniProt Q06187); assay: HTRF KinEASE-TK kinase assay, BTK; assay type: biochemical; settings: 3 h preincubation; for remaining activity at 1 µM: 1 μM compound, read-out: % BTK Remaining activity vs DMSO (1 μM, 3 h); for remaining activity at 10 µM: 10 μM compound, read-out: % BTK Remaining activity vs DMSO (10 μM, 3 h); for IC50: dose response, read-out: BTK Inhibition IC50
# T1 sequence (Q06187 whole entry): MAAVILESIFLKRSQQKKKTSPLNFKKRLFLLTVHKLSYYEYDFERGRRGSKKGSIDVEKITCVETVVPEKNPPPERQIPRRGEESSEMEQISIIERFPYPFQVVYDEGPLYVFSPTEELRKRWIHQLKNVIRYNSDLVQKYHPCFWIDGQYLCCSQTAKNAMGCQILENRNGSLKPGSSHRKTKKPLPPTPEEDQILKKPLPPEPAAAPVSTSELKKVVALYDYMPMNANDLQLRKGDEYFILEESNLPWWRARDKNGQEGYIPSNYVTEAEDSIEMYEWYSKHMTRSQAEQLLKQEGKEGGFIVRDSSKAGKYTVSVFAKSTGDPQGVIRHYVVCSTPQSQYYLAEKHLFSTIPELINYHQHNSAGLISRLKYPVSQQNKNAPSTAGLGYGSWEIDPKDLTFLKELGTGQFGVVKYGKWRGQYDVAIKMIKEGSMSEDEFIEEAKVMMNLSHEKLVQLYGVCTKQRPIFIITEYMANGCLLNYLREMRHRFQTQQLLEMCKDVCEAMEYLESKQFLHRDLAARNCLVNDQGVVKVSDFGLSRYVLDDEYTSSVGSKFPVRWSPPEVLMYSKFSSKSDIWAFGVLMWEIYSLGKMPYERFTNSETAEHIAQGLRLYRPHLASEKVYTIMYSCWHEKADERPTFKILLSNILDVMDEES
# Summary of the method: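 BTK activity in HTRF KinEASE-TK format, buffer containing 10 mM MnCl2, 5 mM MgCl2, 1 uM ATPγS and 1 mM TCEP; 45 min reaction with biotinylated substrate and ATP.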
# BTK [2] = molecular target: T1, BTK; assay: Ramos RA1 cell lysis and immunoassay, phospho-BTK (Y223) inhibition; assay type: cell-based; set-up: key: X: BTK bound and autophosphoration of BTK inhibited in cells; settings: RAMOS cells, compound concentration 1 μM
# Summary of the method: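 Ramos RA1 cells treated with compound or DMSO for 24 h at 37° C., lysed in RIPA, analysed by Simple Western. Total BTK normalised to β-actin, pBTK (Y223) to total-protein reagent; both expressed relative to DMSO control.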
# BMX = BMX (Homo sapiens (Human), UniProt P51813); assay: HTRF KinEASE-TK kinase assay, BMX; assay type: biochemical; settings: for remaining activity at 1 µM: 1 uM compound; for remaining activity at 1 µM / remaining activity at 10 µM: 3 h preincubation; for remaining activity at 10 µM: 10 uM compound; for IC50: dose response
# Chain of BMX (P51813 whole entry): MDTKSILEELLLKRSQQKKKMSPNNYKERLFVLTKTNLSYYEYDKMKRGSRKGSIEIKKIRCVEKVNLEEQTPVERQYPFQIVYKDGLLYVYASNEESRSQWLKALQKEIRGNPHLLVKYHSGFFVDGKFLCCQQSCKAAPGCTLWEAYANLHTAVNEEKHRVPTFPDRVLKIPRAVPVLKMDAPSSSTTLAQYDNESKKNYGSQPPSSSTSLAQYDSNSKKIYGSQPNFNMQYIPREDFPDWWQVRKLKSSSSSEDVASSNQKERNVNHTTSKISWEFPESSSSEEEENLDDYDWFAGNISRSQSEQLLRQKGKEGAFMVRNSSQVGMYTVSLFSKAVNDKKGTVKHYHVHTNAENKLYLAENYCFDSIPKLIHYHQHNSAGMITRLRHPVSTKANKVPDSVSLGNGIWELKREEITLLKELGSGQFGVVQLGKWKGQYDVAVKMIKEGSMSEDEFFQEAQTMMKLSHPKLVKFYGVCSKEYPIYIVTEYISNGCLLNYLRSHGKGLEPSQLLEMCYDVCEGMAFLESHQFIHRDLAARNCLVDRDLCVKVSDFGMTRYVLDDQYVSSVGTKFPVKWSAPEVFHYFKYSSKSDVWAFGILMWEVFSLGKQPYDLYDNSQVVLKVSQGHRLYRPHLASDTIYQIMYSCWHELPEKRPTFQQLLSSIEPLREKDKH
# Summary of the method: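 Purchased BMX (0.333 ng/ul, 3.03 nM) was preincubated with or without inhibitor for 3 h at room temperature, then biotinylated substrate and ATP were added. Reactions were stopped with EDTA-containing buffer holding 31.25 nM SA-XL665 and Eu-antibody, and after 60 min phosphorylation was read as the HTRF 665/620 nm emission ratio.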
# JAK3 = JAK3 (Homo sapiens (Human), UniProt P52333); assay: HTRF KinEASE-TK kinase assay, JAK3; assay type: biochemical; settings: for remaining activity at 1 µM: read-out: % JAK3 Remaining activity vs DMSO (1 μM, 3 h); for remaining activity at 10 µM: read-out: % JAK3 Remaining activity vs DMSO (10 μM, 3 h)
# Chain of JAK3 (P52333 781-1124): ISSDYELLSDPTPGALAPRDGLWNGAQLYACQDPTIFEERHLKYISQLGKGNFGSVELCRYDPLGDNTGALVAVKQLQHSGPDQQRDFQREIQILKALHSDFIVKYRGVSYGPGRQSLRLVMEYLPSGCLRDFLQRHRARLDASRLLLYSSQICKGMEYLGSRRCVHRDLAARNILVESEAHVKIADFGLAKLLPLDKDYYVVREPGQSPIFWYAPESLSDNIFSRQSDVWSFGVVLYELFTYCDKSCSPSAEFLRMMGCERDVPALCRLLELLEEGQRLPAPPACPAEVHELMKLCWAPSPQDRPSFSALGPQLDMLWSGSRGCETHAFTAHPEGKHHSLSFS
# Summary of the method: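 Promega JAK3 at 0.21 nM was preincubated with inhibitor for 3 h at room temperature before biotinylated substrate and ATP were added. The reaction was stopped with EDTA detection buffer containing 31.25 nM SA-XL665 and Eu-antibody. After 60 min, the HTRF 665/620 nm emission ratio reflected substrate phosphorylation.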
# FGFR4 = FGFR4 (Homo sapiens (Human), UniProt P22455); assay: HTRF KinEASE-TK kinase assay, FGFR4; assay type: biochemical; settings: for remaining activity at 1 µM: read-out: % FGFR4 Remaining activity vs DMSO (1 μM, 3 h); for remaining activity at 10 µM: read-out: % FGFR4 Remaining activity vs DMSO (10 μM, 3 h); for IC50: dose response
# Chain of FGFR4 (P22455 22-802): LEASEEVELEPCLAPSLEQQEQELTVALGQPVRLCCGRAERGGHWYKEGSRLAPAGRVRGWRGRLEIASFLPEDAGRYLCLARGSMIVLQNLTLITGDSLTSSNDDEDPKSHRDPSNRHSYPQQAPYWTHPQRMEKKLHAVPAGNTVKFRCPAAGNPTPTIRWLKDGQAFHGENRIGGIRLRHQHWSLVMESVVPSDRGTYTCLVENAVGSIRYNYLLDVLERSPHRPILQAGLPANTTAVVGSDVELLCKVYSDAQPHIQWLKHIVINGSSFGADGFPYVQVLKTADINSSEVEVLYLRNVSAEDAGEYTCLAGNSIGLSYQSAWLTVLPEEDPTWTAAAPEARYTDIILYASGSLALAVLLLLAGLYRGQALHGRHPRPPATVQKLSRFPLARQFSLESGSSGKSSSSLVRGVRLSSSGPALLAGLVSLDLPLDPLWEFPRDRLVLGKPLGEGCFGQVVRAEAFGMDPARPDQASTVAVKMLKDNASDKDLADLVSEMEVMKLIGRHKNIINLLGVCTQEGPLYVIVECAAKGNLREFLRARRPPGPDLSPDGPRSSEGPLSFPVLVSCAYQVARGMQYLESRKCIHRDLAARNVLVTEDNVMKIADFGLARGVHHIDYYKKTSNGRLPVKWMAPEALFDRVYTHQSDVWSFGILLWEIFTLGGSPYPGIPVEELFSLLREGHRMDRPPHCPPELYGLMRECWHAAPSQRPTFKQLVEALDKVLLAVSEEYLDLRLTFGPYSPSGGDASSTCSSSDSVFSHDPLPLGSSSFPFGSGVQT
# Summary of the method: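 Promega FGFR4 at 0.333 ng/ul (5.12 nM) preincubated with or without inhibitor for 3 h at room temperature, then reaction started with biotinylated substrate and ATP. Stopped with EDTA detection buffer containing 31.25 nM SA-XL665 and Eu-antibody; after 60 min, HTRF 665/620 nm ratio read as substrate phosphorylation.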
# RIPK2 = RIPK2 (Homo sapiens (Human), UniProt O43353); assay: In vitro RIPK2 inhibition; assay type: biochemical; settings: for remaining activity at 1 µM: read-out: % RIPK2 Remaining activity vs DMSO (1 μM, 3 h); for remaining activity at 10 µM: read-out: % RIPK2 Remaining activity vs DMSO (10 μM, 3 h)
# Chain of RIPK2 (O43353 whole entry, species assumed): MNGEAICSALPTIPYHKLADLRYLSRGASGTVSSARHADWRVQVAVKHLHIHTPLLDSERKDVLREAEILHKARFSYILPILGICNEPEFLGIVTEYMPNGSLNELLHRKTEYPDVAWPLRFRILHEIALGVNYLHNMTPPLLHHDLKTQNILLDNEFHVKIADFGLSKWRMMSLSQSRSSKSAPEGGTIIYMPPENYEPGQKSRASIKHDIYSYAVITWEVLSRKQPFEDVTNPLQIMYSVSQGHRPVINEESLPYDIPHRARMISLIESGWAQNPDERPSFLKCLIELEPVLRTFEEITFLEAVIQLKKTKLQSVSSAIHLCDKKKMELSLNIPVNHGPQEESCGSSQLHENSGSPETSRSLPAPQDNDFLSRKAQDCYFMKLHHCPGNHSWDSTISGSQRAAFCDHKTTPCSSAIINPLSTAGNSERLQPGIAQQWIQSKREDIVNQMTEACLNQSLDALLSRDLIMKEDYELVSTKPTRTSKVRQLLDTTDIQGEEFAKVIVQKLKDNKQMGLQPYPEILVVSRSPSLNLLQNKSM
SMILES,remaining activity at 1 µM (EGFR) [%],remaining activity at 10 µM (EGFR) [%],IC50 (EGFR) [nM],remaining activity at 1 µM (BTK [1]) [%],remaining activity at 10 µM (BTK [1]) [%],IC50 (BTK [1]) [nM],"pBTK inhibition (RAMOS, 24 h) (BTK [2])",remaining activity at 1 µM (BMX) [%],remaining activity at 10 µM (BMX) [%],IC50 (BMX) [nM],remaining activity at 1 µM (JAK3) [%],remaining activity at 10 µM (JAK3) [%],remaining activity at 1 µM (FGFR4) [%],remaining activity at 10 µM (FGFR4) [%],remaining activity at 1 µM (RIPK2) [%],remaining activity at 10 µM (RIPK2) [%],IC50 (FGFR4) [nM],IC50 (JAK3; dose response) [nM]
"CS(=O)(=O)c1c(F)c(F)c(F)c(F)c1C(=O)NCCn1nc(-c2ccc(Oc3ccccc3)cc2)c2c(N)ncnc21 [Compound I-38, N-(2-(4-amino-3-(4-phenoxyphenyl)-1H-pyrazolo[3,4-d]pyrimidin-1-yl)ethyl)-2,3,4,5-tetrafluoro-6-(methylsulfonyl)benzamide]",< 50,< 50,> 1000,< 50,< 50,< 1000,X,< 50,< 50,< 1000,> 90,< 50,< 50,< 50,> 90,> 90,,
"Nc1ncnc2c1c(-c1ccc(Oc3ccccc3)cc1)nn2CCCNC(=O)c1c(F)c(F)c(F)c(F)c1S(N)(=O)=O [Compound I-34, N-(3-(4-amino-3-(4-phenoxyphenyl)-1H-pyrazolo[3,4-d]pyrimidin-1-yl)propyl)-2,3,4,5-tetrafluoro-6-sulfamoylbenzamide]",< 50,< 50,,< 50,< 50,< 1000,X,< 50,< 50,< 1000,50 to 90,< 50,< 50,< 50,> 90,> 90,< 1000,
"Nc1ncnc2c1c(-c1ccc(Oc3ccccc3)cc1)nn2[C@@H]1CCN(S(=O)(=O)c2c(F)c(F)c(F)c(F)c2OCF)C1 [Compound I-24, (R)-3-(4-phenoxyphenyl)-1-(1-((2,3,4,5-tetrafluoro-6-(fluoromethoxy)phenyl)sulfonyl)pyrrolidin-3-yl)-1H-pyrazolo[3,4-d]pyrimidin-4-amine]",> 90,> 90,,< 50,< 50,,X,< 50,< 50,,> 90,50 to 90,< 50,< 50,,,> 1000,
"COCCOc1ccc(Nc2ncc(F)c(Nc3cccc(NC(=O)c4c(F)c(F)c(F)c(F)c4S(=O)(=O)N(C)C)c3)n2)cc1 [Compound I-59, 2-(N,N-dimethylsulfamoyl)-3,4,5,6-tetrafluoro-N-(3-((5-fluoro-2-((4-(2-methoxyethoxy)phenyl)amino)pyrimidin-4-yl)amino)phenyl)benzamide]",> 90,> 90,,< 50,< 50,,X,< 50,< 50,,50 to 90,50 to 90,< 50,< 50,< 50,< 50,< 1000,
"C[S@+]([O-])c1c(F)c(F)c(F)c(F)c1C(=O)Nc1ncnc2[nH]ccc12 (racemic) [Compound I-46, 2,3,4,5-tetrafluoro-6-(methylsulfinyl)-N-(7H-pyrrolo[2,3-d]pyrimidin-4-yl)benzamide]",> 90,> 90,,50 to 90,< 50,,X,50 to 90,50 to 90,,> 90,> 90,50 to 90,> 90,< 50,50 to 90,,
"C[S+]([O-])c1c(F)c(F)c(F)c(F)c1C(=O)N1CCC[C@@H](n2nc(-c3ccc(Oc4ccccc4)cc3)c3c(N)ncnc32)C1 (stereo partly drawn) [Compound I-36, ((R)-3-(4-amino-3-(4-phenoxyphenyl)-1H-pyrazolo[3,4-d]pyrimidin-1-yl)piperidin-1-yl)(2,3,4,5-tetrafluoro-6-(methylsulfinyl)phenyl)methanone]",> 90,> 90,,< 50,< 50,< 1000,X,< 50,< 50,,> 90,50 to 90,> 90,< 50,> 90,> 90,,
"CN(C)S(=O)(=O)c1c(F)c(F)c(F)c(F)c1C(=O)NCCCn1nc(-c2ccc(Oc3ccccc3)cc2)c2c(N)ncnc21 [Compound I-41, N-(3-(4-amino-3-(4-phenoxyphenyl)-1H-pyrazolo[3,4-d]pyrimidin-1-yl)propyl)-2-(N,N-dimethylsulfamoyl)-3,4,5,6-tetrafluorobenzamide]",< 50,< 50,,< 50,< 50,,X,< 50,< 50,< 1000,> 90,> 90,50 to 90,< 50,> 90,> 90,,
"CN(C)S(=O)(=O)c1c(F)c(F)c(F)c(F)c1C(=O)NCCn1nc(-c2ccc(Oc3ccccc3)cc2)c2c(N)ncnc21 [Compound I-40, N-(2-(4-amino-3-(4-phenoxyphenyl)-1H-pyrazolo[3,4-d]pyrimidin-1-yl)ethyl)-2-(N,N-dimethylsulfamoyl)-3,4,5,6-tetrafluorobenzamide]",< 50,< 50,,< 50,< 50,< 1000,X,< 50,< 50,,> 90,50 to 90,50 to 90,< 50,> 90,> 90,,
"COCCOc1ccc(Nc2ncc(F)c(Nc3cccc(NC(=O)c4c(F)c(F)c(F)c(F)c4S(C)(=O)=O)c3)n2)cc1 [Compound I-61, 2,3,4,5-tetrafluoro-N-(3-((5-fluoro-2-((4-(2-methoxyethoxy)phenyl)amino)pyrimidin-4-yl)amino)phenyl)-6-(methylsulfonyl)benzamide]",> 90,< 50,,< 50,< 50,,X,< 50,< 50,,< 50,< 50,< 50,< 50,,,< 1000,< 1000
C[S+]([O-])c1c(F)c(F)c(F)c(F)c1C(=O)Nc1cc2c(Nc3ccc(F)c(Cl)c3)ncnc2cc1OC1CCOC1 (stereo not drawn) [Compound I-3],< 50,< 50,< 1000,50 to 90,50 to 90,,X,50 to 90,> 90,,> 90,> 90,> 90,> 90,,,,
